What was measured:
psoriasis = details: systemic treatment of psoriasis, background table; cited from earlier work
[1] = system: propranolol-induced guinea pig psoriasis model; assay: Propranolol-induced guinea pig psoriasis model; format: in vivo, Hartley guinea pigs
Experimental: The preparation of 5% propranolol hydrochloride emulsion: 5 g propranolol hydrochloride was dissolved with 50% ethanol, 5 mL 1,2-propanediol was added as a composite accelerator, and 5 g PVPK30 was added as a film-forming material. 50% ethanol was added to 100 mL, and preparing into 5% propranolol hydrochloride emulsion until used
80 Hartley guinea pigs weighing 200-250 g with half males and half females were selected in this study, the Hartley guinea pigs were qualified in an adaptive breeding observation. 10 guinea pigs (half male and half female) were used as a normal control group based on a random allocation, and no drugs were administrated to them; the other 70 guinea pigs (half males and half females) were treated with 5% propranolol hydrochloride emulsion (about 200 μL) evenly in the skins behind both of ears, 2 times a day, continuing treating 4 weeks, for modeling. 4 weeks later, 10 guinea pigs were sacrificed to examine whether the model was successful (with the thickness of the ear skin as an index). The remaining 60 guinea pigs were then layered with Excel according to weights, 6 guinea pigs every layer, and the guinea pigs in each layer were randomly assigned to each group, 10 guinea pigs every group, and the guinea pigs were divided into 6 groups in total, that is the model control group, the group of the present invention, the group of patent 201210183904.3, the group of the patent of 200910091066.5, the group of methotrexate tablet and the group of yujin yinxie tablet. The guinea pigs in each group were given by intragastric administration at a volume of 20 mL·kg-1·d-1 in the morning, once every day for 10 days. The normal control group and the model control group were given equal volume of pure water. The guinea pigs were sacrificed one hour after the last administration, and the skin behind both of ears was took off and fixed with 10% formaldehyde solution, embedded in paraffin, and stained with HE, observed under an optical microscope. 10 high-power fields were counted, the thickness of the epidermis was measured with a micrometer, and averaged; the auricular pathology of guinea pigs was used to perform a histological examination, observe vasodilation situations, which were denoted as 0, 0.5, 1 and 2 points according to normal, light, medium and heavy degrees.

[2] = system: mouse tail scaled epidermis; assay: Effects on the mouse tail scaled epidermis; format: in vivo, KM mice
Description: 60 KM mice weighing 18-25 g with half males and half females were selected in this study, the mice were qualified in an adaptive breeding observation. The mice were layered with Excel according to weights, 6 mice every layer, and the mice in each layer were randomly assigned to each group, 10 mice every group, and the mice were divided into 6 groups in total, that is normal control group, the group of the present invention, the group of patent 200910091066.5, the group of the patent of 201210183904.3, the group of methotrexate tablet and the group of yujin yinxie tablet. The mice in each group were given by intragastric administration at a volume of 20 mL·kg-1·d-1 in the morning, once every day for 14 days. The normal control group was given equal volume of pure water. The mice were sacrificed one hour after the last administration, and a long strip of the dorsal skin of the root of the mouse tail (about 1.0 cm×0.2 em) was took off and fixed with 10% formaldehyde solution, embedded in paraffin, and stained with HE. The tail scales of each mouse were observed under an optical microscope. Those where the granulosa layers arranged in rows are in the epidermis of scales between the two follicular orifice, are known as the scales with granulosa layer. […]

| Compound | Efficacy rate (the efficient) (psoriasis) | Blood vessel dilatation ([1]; 0, 0.5, 1, 2 points for normal, light, medium, heavy, intragastric 10 days, x ± s, n = 10) [score] | Effect on epidermis thickness of guinea pig ears and hemangiectasis compared with model control ([1]; P<0.01) | Histopathological examination ([1]; guinea pig ear skin, HE stain) | Epidermal thickness ([1]; guinea pig ear skin, intragastric once daily for 10 days, x ± s, n = 10) [μm] | Formation of the epidermis granulosa layer of the mouse tail scale compared with normal control group ([2]; intragastric 14 days, P<0.05 or P<0.01) | The number of scales in the granulosa layer ([2]; per 100 scales, expressed as a percentage, intragastric once daily for 14 days, x ± s, n = 10) |
| --- | --- | --- | --- | --- | --- | --- | --- |
| CC1=C(/C=C/C(C)=C/C=C/C(C)=C/CO)C(C)(C)CCC1 [Vitamin A, vitamin A (retinol)] | 25% |  |  |  |  |  |  |
| CN(Cc1cnc2nc(N)nc(N)c2n1)c1ccc(C(=O)N[C@@H](CCC(=O)O)C(=O)O)cc1 [methotrexate tablet, methotrexate] | 20-40% | 0.42 ± 0.12 | significantly reduce the thickness of the epidermis of guinea pig ears and reduce hemangiectasis | hyperkeratosis and parakeratosis was obviously alleviated | 96.61 ± 4.78 | significantly promote the formation of the epidermis granulosa layer of the mouse tail scale | 43.65 ± 11.18 |

Source: patent publication US20180289764A1, “TRADITIONAL CHINESE MEDICINE COMPOSITION FOR TREATING PSORIASIS” (Guangdong Provincial Hospital of Chinese Medicine, priority 2015, published 2018)
